Experiments:
Type in all cases: cell-based, human
[1] = test system: TNF-α; experiment: TNF-α inhibitory properties (ELISA), HCT116 cell lysate; conditions: at 10 μM; for TNF-α pg/mL (± SEM) HCT116: control 95.74 ± 0.5
[2] = test system: TNF-α; experiment: TNF-α inhibitory properties (ELISA), PaCa2 cell lysate; conditions: at 10 μM; for TNF-α pg/mL (± SEM) PaCa2: control 111.8 ± 2.0
[3] = test system: TNF-α; experiment: TNF-α inhibitory properties (ELISA), MCF7 cell lysate; conditions: at 10 μM; for TNF-α pg/mL (± SEM) MCF7: control 83.26 ± 1.1

Q: Which “TNF-α % inhibition HCT116” value [1] does the source give for `CC(C)Cc1ccc(C(C)C(=O)O)cc1` (stereo not drawn) [Ibuprofen, reference compound] here?
A: Its value is 22.2%.

Q: And the “TNF-α pg/mL (± SEM) HCT116” value [1]?
A: Its value is 74.5 ± 1.1 pg/mL.

Q: And the “TNF-α % inhibition PaCa2” value [2]?
A: Its value is 42.0%.

Q: And the “TNF-α pg/mL (± SEM) PaCa2” value [2]?
A: The value was 64.8 ± 0.6 pg/mL.

Q: And the “TNF-α % inhibition MCF7” value [3]?
A: Its value is 7.8%.

Q: What about the “TNF-α pg/mL (± SEM) MCF7” value [3] of the same compound?
A: Its value is 76.8 ± 2.0 pg/mL.

Q: With `COc1ccc2c(c1)c(CC(=O)O)c(C)n2C(=O)c1ccc(Cl)cc1` [Indomethacin, reference compound] as the compound, how does the “TNF-α % inhibition HCT116” value [1] read?
A: Its value is 42.8%.

Q: What about the “TNF-α pg/mL (± SEM) HCT116” value [1] of the same compound?
A: The value was 54.8 ± 0.7 pg/mL.

Q: What about the “TNF-α % inhibition PaCa2” value [2] of the same compound?
A: Its value is 32.6%.

Q: What about the “TNF-α pg/mL (± SEM) PaCa2” value [2] of the same compound?
A: The value was 75.3 ± 2.1 pg/mL.

Q: And the “TNF-α % inhibition MCF7” value [3]?
A: The value was 22.9%.

Q: What about the “TNF-α pg/mL (± SEM) MCF7” value [3] of the same compound?
A: Its value is 64.2 ± 1.6 pg/mL.

From paper PMC12504763, “Antiproliferation, 3D-multicellular spheroid and VEGFR-2 inhibitory properties of spiroindolin-2-ones with phosphonate function” (Scientific Reports, 2025)
